{"source": "the supplement of paper PMC10307832", "experiment_in_all_cases": "relative viability (nuclei count vs DMSO), 5 days (fraction); higher = more cells survive", "key": {"NCI-H358": {"test_system": "NCI-H358", "conditions": "first compound 4 µM", "in_short": "(§1)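 Lung cancer cell lines in 1536-well plates got either a single drug or a fixed anchor-drug dose together with five library-drug doses (not always all listed) in √10 steps, by pin tool, on the day after seeding. Nuclei were counted after 5 days, and relative viability is the treated-to-vehicle ratio of nuclei counts. Values are medians of duplicate plates.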"}, "NCI-H838": {"test_system": "NCI-H838", "in_short": "as §1"}, "NCI-H596": {"test_system": "NCI-H596", "in_short": "as §1"}, "LK-2": {"test_system": "LK-2", "in_short": "as §1"}, "NCI-H1666": {"test_system": "NCI-H1666", "in_short": "as §1"}, "LCLC-97TM1": {"test_system": "LCLC-97TM1", "in_short": "as §1"}, "HCC-78": {"test_system": "HCC-78", "in_short": "as §1"}, "BEN": {"test_system": "BEN", "in_short": "as §1"}, "NCI-H2342": {"test_system": "NCI-H2342", "in_short": "as §1"}, "UMC-11": {"test_system": "UMC-11", "in_short": "as §1"}, "HCC-15": {"test_system": "HCC-15", "in_short": "as §1"}, "NCI-H650": {"test_system": "NCI-H650", "in_short": "as §1"}, "SK-MES-1": {"test_system": "SK-MES-1", "in_short": "as §1"}}}
{"smiles": "COc1cc(N2CCC(C(N)=O)CC2)ccc1Nc1nc(N)c(Cl)c(Nc2ccccc2S(=O)(=O)C(C)C)n1", "note": "[HG-5-88-01] + Nc1ncn([C@H]2C[C@H](O)[C@@H](CO)O2)c(=O)n1 [Decitabine] (partner 2 µM)", "values": [{"measurement": "relative viability", "setting": "NCI-H358", "value": 0.125}, {"measurement": "relative viability", "setting": "NCI-H838; first compound 0.04 µM", "value": 0.46}, {"measurement": "relative viability", "setting": "NCI-H838; first compound 0.1265 µM", "value": 0.467}, {"measurement": "relative viability", "setting": "NCI-H838; first compound 0.4 µM", "value": 0.491}, {"measurement": "relative viability", "setting": "NCI-H838; first compound 1.265 µM", "value": 0.407}, {"measurement": "relative viability", "setting": "NCI-H838; first compound 4 µM", "value": 0.341}, {"measurement": "relative viability", "setting": "NCI-H596; first compound 0.04 µM", "value": 1.02}, {"measurement": "relative viability", "setting": "NCI-H596; first compound 0.1265 µM", "value": 0.973}, {"measurement": "relative viability", "setting": "NCI-H596; first compound 0.4 µM", "value": 1.04}, {"measurement": "relative viability", "setting": "NCI-H596; first compound 1.265 µM", "value": 0.981}, {"measurement": "relative viability", "setting": "NCI-H596; first compound 4 µM", "value": 0.974}, {"measurement": "relative viability", "setting": "LK-2; first compound 0.04 µM", "value": 0.254}, {"measurement": "relative viability", "setting": "LK-2; first compound 0.1265 µM", "value": 0.327}, {"measurement": "relative viability", "setting": "LK-2; first compound 0.4 µM", "value": 0.386}, {"measurement": "relative viability", "setting": "LK-2; first compound 4 µM", "value": 0.236}, {"measurement": "relative viability", "setting": "NCI-H1666; first compound 0.04 µM", "value": 0.66}, {"measurement": "relative viability", "setting": "NCI-H1666; first compound 0.1265 µM", "value": 0.743}, {"measurement": "relative viability", "setting": "NCI-H1666; first compound 0.4 µM", "value": 0.779}, {"measurement": "relative viability", "setting": "NCI-H1666; first compound 1.265 µM", "value": 0.622}, {"measurement": "relative viability", "setting": "NCI-H1666; first compound 4 µM", "value": 0.566}, {"measurement": "relative viability", "setting": "LCLC-97TM1; first compound 0.04 µM", "value": 0.21}, {"measurement": "relative viability", "setting": "LCLC-97TM1; first compound 0.1265 µM", "value": 0.219}, {"measurement": "relative viability", "setting": "LCLC-97TM1; first compound 0.4 µM", "value": 0.209}, {"measurement": "relative viability", "setting": "LCLC-97TM1; first compound 1.265 µM", "value": 0.229}, {"measurement": "relative viability", "setting": "LCLC-97TM1; first compound 4 µM", "value": 0.128}, {"measurement": "relative viability", "setting": "HCC-78; first compound 0.04 µM", "value": 0.696}, {"measurement": "relative viability", "setting": "HCC-78; first compound 0.1265 µM", "value": 0.598}, {"measurement": "relative viability", "setting": "HCC-78; first compound 0.4 µM", "value": 0.62}, {"measurement": "relative viability", "setting": "HCC-78; first compound 1.265 µM", "value": 0.411}, {"measurement": "relative viability", "setting": "HCC-78; first compound 4 µM", "value": 0.432}, {"measurement": "relative viability", "setting": "BEN; first compound 0.04 µM", "value": 0.532}, {"measurement": "relative viability", "setting": "BEN; first compound 0.1265 µM", "value": 0.738}, {"measurement": "relative viability", "setting": "BEN; first compound 0.4 µM", "value": 0.77}, {"measurement": "relative viability", "setting": "BEN; first compound 1.265 µM", "value": 0.725}, {"measurement": "relative viability", "setting": "BEN; first compound 4 µM", "value": 0.545}, {"measurement": "relative viability", "setting": "NCI-H2342; first compound 0.04 µM", "value": 0.751}, {"measurement": "relative viability", "setting": "NCI-H2342; first compound 0.1265 µM", "value": 0.808}, {"measurement": "relative viability", "setting": "NCI-H2342; first compound 0.4 µM", "value": 0.808}, {"measurement": "relative viability", "setting": "NCI-H2342; first compound 4 µM", "value": 0.801}, {"measurement": "relative viability", "setting": "UMC-11; first compound 0.04 µM", "value": 0.638}, {"measurement": "relative viability", "setting": "UMC-11; first compound 0.1265 µM", "value": 0.706}, {"measurement": "relative viability", "setting": "UMC-11; first compound 0.4 µM", "value": 0.604}, {"measurement": "relative viability", "setting": "UMC-11; first compound 1.265 µM", "value": 0.526}, {"measurement": "relative viability", "setting": "UMC-11; first compound 4 µM", "value": 0.672}, {"measurement": "relative viability", "setting": "HCC-15; first compound 0.04 µM", "value": 0.682}, {"measurement": "relative viability", "setting": "HCC-15; first compound 0.1265 µM", "value": 0.709}, {"measurement": "relative viability", "setting": "HCC-15; first compound 0.4 µM", "value": 0.487}, {"measurement": "relative viability", "setting": "HCC-15; first compound 1.265 µM", "value": 0.572}, {"measurement": "relative viability", "setting": "HCC-15; first compound 4 µM", "value": 0.477}, {"measurement": "relative viability", "setting": "NCI-H650; first compound 0.04 µM", "value": 0.357}, {"measurement": "relative viability", "setting": "NCI-H650; first compound 0.1265 µM", "value": 0.328}, {"measurement": "relative viability", "setting": "NCI-H650; first compound 0.4 µM", "value": 0.435}, {"measurement": "relative viability", "setting": "NCI-H650; first compound 1.265 µM", "value": 0.366}, {"measurement": "relative viability", "setting": "NCI-H650; first compound 4 µM", "value": 0.306}, {"measurement": "relative viability", "setting": "SK-MES-1; first compound 0.04 µM", "value": 0.408}, {"measurement": "relative viability", "setting": "SK-MES-1; first compound 0.1265 µM", "value": 0.368}, {"measurement": "relative viability", "setting": "SK-MES-1; first compound 0.4 µM", "value": 0.407}, {"measurement": "relative viability", "setting": "SK-MES-1; first compound 1.265 µM", "value": 0.459}, {"measurement": "relative viability", "setting": "SK-MES-1; first compound 4 µM", "value": 0.34}]}
